US20080312229A1, “Organic Compounds” (Novartis AG, priority 2005, published 2008)

Biological target: T1, human CRTh2 (Homo sapiens, UniProt Q9Y5Y4)
T1 construct: expressed in transfected cells; host or cells: CHO.K1 (Chinese Hamster Ovary) cells, membrane preparation
T1 sequence (Q9Y5Y4 1-395): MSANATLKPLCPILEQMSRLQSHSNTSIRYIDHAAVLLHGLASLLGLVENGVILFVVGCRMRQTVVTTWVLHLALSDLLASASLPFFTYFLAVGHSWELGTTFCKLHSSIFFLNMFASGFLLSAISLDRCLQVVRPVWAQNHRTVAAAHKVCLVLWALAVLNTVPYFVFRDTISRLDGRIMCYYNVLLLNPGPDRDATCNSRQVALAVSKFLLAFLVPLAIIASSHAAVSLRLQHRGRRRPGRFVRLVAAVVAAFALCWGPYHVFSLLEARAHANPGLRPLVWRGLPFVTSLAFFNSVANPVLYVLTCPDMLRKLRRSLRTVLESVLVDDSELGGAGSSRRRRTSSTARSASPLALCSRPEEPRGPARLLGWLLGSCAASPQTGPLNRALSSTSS
Experiment: CRTh2 [3H]-PGD2 binding assay (called SPA binding assay; filtration binding protocol described)
Details: competition with [3H]-PGD2 (2.5 nM), CHO.K1-CRTh2 membranes
Protocol: The binding of CRTh2 modulators is determined using membranes prepared from human CRTh2-expressing Chinese Hamster Ovary cells (CHO.K1-CRTh2). To produce cell membranes CHO.K1-CRTh2 cells cultured in roller bottles are harvested using cell dissociation buffer (Invitrogen). The cells are pelleted by centrifugation (167 g, 5 min). The cell pellet is incubated in hypotonic buffer (15 mM Tris-OH, 2 mM MgCl2, 0.3 mM EDTA, 1 mM EGTA, 1× Complete™ tablet) at 4° C. for 30 min. At 4° C. cells are homogenized using a Polytron® (IKA Ultra Turrax T25) for 5 bursts of 1 second. The homogenate is centrifuged (Beckman Optima TM TL Ultracentrifuge, 48000 g, 30 min at 4° C.). […]
The binding of [^3H]-PGD2 (157 Ci/mmol) to CHO.K1-CRTh2 membranes is determined in the absence (total binding) and presence (non-specific binding) of unlabelled PGD2 (1 μM). […]
The plates are incubated at room temperature on a shaker for 1 hour, and then harvested (Tomtec Harvester 9600) onto GF/C filter plates using wash buffer (10 mM HEPES-KOH, pH 7.4). […] Plates are then counted using a Packard Top Count instrument, Plates are then read on the Packard Topcount with the 3H Scintillation program (1 min per well).
Ki (dissociation constant for the inhibition) values for the CRTh2 modulators are reported. Ki values are determined using Sigma Plot™ software, using the Cheng-Prussoff equation. […]

Structure (SMILES): Cc1c(CC(=O)O)c2cccnc2n1CCc1ccccc1 [Example 1, (2-Methyl-1-phenethyl-1H-pyrrolo[2,3-b]pyridine-3-yl)-acetic acid]
- Ki: 0.716 µM
